{"source": "patent US8691972B2", "about": "“Compounds and synthesis of tellurium-derivatized oligonucleotides for structural and functional studies” (priority 2009, dated 2014)", "key": {"[1]": {"tested_on": "3′-CGGACAAGAAG-5′ (complementary DNA strand)", "test": "Thermo-denaturation (UV-melting, 260 nm) of non-self-complementary DNA duplex", "format": "physicochemical", "conditions": "for average Tm (melting temperature) of the duplex: duplex 5′-C(2′-TeX-dU)TCTTGTCCG-3′ & 3′-CGGACAAGAAG-5′, four measurements, 50 mM NaCl, 10 mM phosphate pH 6.5, 0.1 mM EDTA, 10 mM MgCl2, 0.5° C./min", "protocol": "(§1) Solution of the duplex DNA (2 uM) was prepared by dissolving the DNAs in a buffer containing 50 mM NaCl, 10 mM NaH2PO4—Na2HPO4 (pH 6.5), 0.1 mM EDTA and 10 mM MgCl2. The solution was heated to 70° C. for 2 min and cooled slowly to room temperature, followed by storing at 4° C. for overnight before measurement. The Tm curves were acquired at 260 nm by heating the samples from 5 to 70° C. at a rate of 0.5° C./min using Cary 300 UV-Visible Spectrophotometer with a temperature controller. […] The samples (1 mM duplex) were heated from 6 to 75° C. with a rate of 0.5° C./min. The red, blue and green curves represent the native, 2′-TeMe and 2′-TePh duplex, respectively, and are labelled in FIG. 6. The average Tm (four measurements) for each duplex is: 44.0±0.1° C. (native), 40.7±0.1° C. (2′-TeMe) and 36.8±0.2° C. (2′-TePh). […] The samples (1 mM duplex) were heated from 6 to 70° C. with a rate of 0.5° C./min. The circle (red), diamond (blue) and hexagon (purple) curves represent the native, 2′-TeMe and 2′-TePh DNA duplexes, respectively, with the averaged Tm (four times): 39.4° C. (native), 28.6° C. (2′-TeMe) and 23.4° C. (2′-TePh)."}, "[2]": {"tested_on": "self-complementary duplex [5′-G(2′-TeX-dU)GTACAC-3′]2", "test": "Thermo-denaturation (UV-melting, 260 nm) of self-complementary DNA duplex", "format": "physicochemical", "conditions": "for averaged Tm of the duplex: self-complementary 8-mer 5′-G(2′-TeX-dU)GTACAC-3′, two modifications per duplex, four times, 0.5° C./min; for Tm decrease per modification: self-complementary duplex [5′-G(2′-TeX-dU)GTACAC-3′]2, compared with native; for Tm decrease compared with the native duplex: self-complementary duplex [5′-G(2′-TeX-dU)GTACAC-3′]2, double Te-modification", "protocol": "as §1"}}, "note": "Where “and” joins values, the source holds several entries; their conditions need not be identical. Identical values can stand only once.", "data": [{"substance": "5′-C(2′-TeX-dU)TCTTGTCCG-3′&3′-CGGACAAGAAG-5′ [2′-TeMe duplex]", "values": [{"measurement": "average Tm (melting temperature) of the duplex", "setting": "[1]", "value": "40.7±0.1 °C and 40.7 °C"}, {"measurement": "difference in melting temperature between native and modified DNA", "setting": "[1]; non-self-complementary duplex 5′-C(2′-TeX-dU)TCTTGTCCG-3′ and 5′-CGGACAAGA-AG-3′", "value": 3.3, "unit": "°C"}]}, {"substance": "5′-C(2′-TeX-dU)TCTTGTCCG-3′&3′-CGGACAAGAAG-5′ [2′-TePh duplex]", "values": [{"measurement": "average Tm (melting temperature) of the duplex", "setting": "[1]", "value": "36.8±0.2 °C and 36.8 °C"}]}, {"substance": "5′-C(2′-TeX-dU)TCTTGTCCG-3′&3′-CGGACAAGAAG-5′ [native duplex, reference compound]", "values": [{"measurement": "average Tm (melting temperature) of the duplex", "setting": "[1]", "value": "44.0±0.1 °C and 44.0 °C"}]}, {"substance": "[5′-G(2′-TeX-dU)GTACAC-3′, X=Ph or Me]2 [2′-TeMe DNA duplex]", "values": [{"measurement": "averaged Tm of the duplex", "setting": "[2]", "value": 28.6, "unit": "°C"}, {"measurement": "Tm decrease per modification", "setting": "[2]", "value": 5.0, "unit": "°C"}, {"measurement": "Tm decrease compared with the native duplex", "setting": "[2]", "value": 10, "unit": "°C"}]}, {"substance": "[5′-G(2′-TeX-dU)GTACAC-3′, X=Ph or Me]2 [2′-TePh DNA duplex]", "values": [{"measurement": "averaged Tm of the duplex", "setting": "[2]", "value": 23.4, "unit": "°C"}, {"measurement": "Tm decrease per modification", "setting": "[2]", "value": 7.5, "unit": "°C"}, {"measurement": "Tm decrease compared with the native duplex", "setting": "[2]", "value": 15, "unit": "°C"}]}]}
